Reference: PMC12376128, “In vitro and In Vivo Drug Metabolism Analysis of BPI-460372 - A Covalent TEAD1/3/4 Inhibitor” (Current Drug Metabolism, 2025)

Experiments:
monkey hepatocytes [1] = assay: Metabolism and metabolite formation in hepatocytes; format: in vitro ADME, cynomolgus monkey; settings: for UV (314 nm) Peak Areas Relative Abundance: cynomolgus monkey hepatocytes, 10 µM BPI-460372, 4 h incubation;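 for Area Ratio T4 h: peak area of analyte divided by internal standard peak area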
Source text: (§1) All the samples were duplicates.

dog hepatocytes [2] = assay: Metabolism and metabolite formation in hepatocytes; format: in vitro ADME, beagle dog; settings: for UV (314 nm) Peak Areas Relative Abundance: beagle dog hepatocytes, 10 µM BPI-460372, 4 h incubation;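 for Area Ratio T0 h: peak area of analyte divided by internal standard peak area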;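 for Area Ratio T4 h: peak area of analyte divided by internal standard peak area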
Source text: as §1

rat hepatocytes [3] = assay: Metabolism and metabolite formation in hepatocytes; format: in vitro ADME, SD rat; settings: for UV (314 nm) Peak Areas Relative Abundance: SD rat hepatocytes, 10 µM BPI-460372, 4 h incubation;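 for Area Ratio T0 h: peak area of analyte divided by internal standard peak area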
Source text: as §1

mouse hepatocytes [4] = assay: Metabolism and metabolite formation in hepatocytes; format: in vitro ADME, ICR mouse; settings: for UV (314 nm) Peak Areas Relative Abundance: ICR mouse hepatocytes, 10 µM BPI-460372, 4 h incubation;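 for Area Ratio T0 h: peak area of analyte divided by internal standard peak area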;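 for Area Ratio T4 h: peak area of analyte divided by internal standard peak area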
Source text: as §1

human hepatocytes [5] = assay: Metabolism and metabolite formation in hepatocytes; settings: human hepatocytes; for UV (314 nm) Peak Areas Relative Abundance: 10 µM BPI-460372, 4 h incubation
Description: 10 µM BPI-460372 was incubated in five species (human, cynomolgus monkey, beagle dog, SD rat, and ICR mouse) hepatocytes (1 × 10^6 cells·min^-1) at 37 °C for 4 h. 7-EC, as positive control, was incubated for 0 h and 4 h. For blank control, hepatocytes were inactivated by adding ice-cold acetonitrile, and then the BPI-460372 solution was added. All the samples were duplicates. Incubations were stopped using the same volume of cold acetonitrile. The tube was vortexed, and the duplicate samples were combined. Metabolite profiling and identification of BPI-460372 were conducted by using UHPLC-Orbitrap-HRMS. The samples of 7-EC were analyzed by LC-MS/MS and then semi-quantified using the peak area ratio of analyte versus IS.
For hepatocyte metabolite identification, the different metabolites of BPI-460372 were detected using an ACQUITY UPLC HSS T3 column (1.8 µm, 100 mm × 2.1 mm) and ACQUITY UPLC BEH C18 column (1.7 µm, 100 mm × 2.1 mm) for rat and dog metabolite identification. The mobile phase contained a mixture of 0.1% formic acid in water (A) and 0.1% formic acid in acetonitrile (B). The gradient elution program was as follows: 0.0-1.0 min, 5% B; 1.0-7.0 min, 5%-30% B; 7.0-12.0 min, 30%-80% B; 12.0-16.0 min, 80%-95% B; 16.0-18.0 min, 95% B; 18.0-18.1 min, 95%-5% B. Then, 5% B from 18.1 to 20.0 min was maintained for equilibration. The flow rate was set to 0.5 mL/min, and the column temperature was kept at 40°C. Eluted fractions were monitored by a UV detector at 314 nm.

[6] = Metabolite identification in rat plasma, urine, feces and bile; format: in vivo, SD rats; settings: for Relative abundance of MS peak areas, Rat Bile 0-48 h / Relative abundance of MS peak areas, Rat Feces 0-48 h / Relative abundance of MS peak areas, Rat Urine 0-48 h: oral 6 mg/kg BPI-460372, average of male and female pooled samples; for Relative abundance of MS peak areas, Rat Plasma 0-24 h: oral 12 mg/kg BPI-460372, average of male and female pooled samples
Description: The plasma samples were acquired from SD rats (n=6, 3 female and 3 male) and beagle dogs (n=6, 3 female and 3 male) after administration of 12 mg/kg and 8 mg/kg of BPI-460372, respectively. The rat urine, feces, and bile samples were acquired in SD rats after administration of 6 mg/kg of BPI-460372.
Equal volume from each rat was pooled together to get 1 male and 1 female 0-24 h plasma samples. An equal percentage by volume of individual urine sample (0-8, 8-24, and 24-48 h) from 3 female and 3 male rats was pooled by time interval across rats, respectively, resulting in two pooled urine samples (1 male and 1 female). An equal percentage by weight of individual feces samples (0-8, 8-24, and 24-48 h) was pooled by time interval across female and male rats, resulting in two pooled fecal samples. An equal percentage by volume of individual bile samples (0-4, 4-8, 8-24, and 24-48 h) was pooled by time interval across female and male rats, resulting in two pooled bile samples. […] Equal volumes from 3 female and 3 male rats were pooled together to get two 0-48 h plasma samples. For blank samples of plasma, urine, and bile, equal volume was pooled across subjects. For a blank sample of feces, equal weight was pooled across rats.
The pooled plasma, feces, and bile samples were extracted by adding 3-fold volume of acetonitrile, and the mixture was vortexed (1 min) and sonicated (1 min) before centrifugation (7220 g, 5 min). The pooled urine samples were centrifuged (7220 g, 5 min). Then the supernatant was transferred into a clean tube and evaporated to dryness under the nitrogen stream. The residues were redissolved with an appropriate volume of acetonitrile/water (20: 80, v: v). After centrifugation, the redissolved solution was transferred into an HPLC vial for UHPLC-Orbitrap-HRMS (15000 g, 10 min, 4°C).

[7] = test system: cysteine S-conjugate β-lyase; assay: Effect of cysteine S-conjugate β-lyase inhibitor AOAA on the metabolism of BPI-460372 (rat urine); settings: for Area ratio in rat urine, mean (%CV): 20 mg/kg BPI-460372 + 100 mg/kg AOAA, once daily 21 days, urine 0-48 h on day 21; for Change of area ratio in rat urine on coadministration with AOAA: 20 mg/kg BPI-460372 with versus without 100 mg/kg AOAA
Description: To investigate the effect of cysteine S-conjugate β-lyase on the metabolism of BPI-460372, SD rats were treated with 20 mg/kg BPI-460372 alone (n=3, male) or 20 mg/kg BPI-460372 coadministration with 100 mg/kg cysteine S-conjugate β-lyase inhibitor AOAA (n=3, male), once daily for 21 consecutive days. On day 21, urine samples were collected at 0-8, 8-24 and 24-48 h. The same percentage of urine samples from each rat was taken at these three time intervals and mixed. The samples were analyzed by LC-MS/MS and then semi-quantified using the peak area ratio of analyte versus IS.

[8] = Metabolic stability in hepatocytes; settings: hepatocytes
Description: (§2) After mixing, 20 μL of cell suspension was serially transferred into 200 μL of cold acetonitrile containing IS at the time points of 0, 5, 15, 30, 60, and 120 min, respectively.
(§3) The metabolic stability was assessed by measuring the depletion of substrate. The half-life (t1/2), intrinsic clearance (CLint, in virto, µL·min^-1·million cells^-1), whole liver intrinsic clearance (CLint, in vivo, mL·min-1·kg^-1), and in vivo hepatic clearance (CLH, mL·min-1·kg^-1) were calculated following a reported method. In the calculation of CLH, the fraction drug unbound (Fub) was set as 1. The hepatic blood flow, liver weight, and hepatocellularity of five species were used for the calculation of CLint, in vivo [13, 14]. The hepatic extraction ratio (Eh) means the ratio of CLH to hepatic blood flow.

dog hepatocytes [9] = assay: Metabolic stability in hepatocytes
Description: as §2, §3

human hepatocytes [10] = assay: Metabolic stability in hepatocytes
Description: as §2, §3

monkey hepatocytes [11] = assay: Metabolic stability in hepatocytes
Description: as §2, §3

mouse hepatocytes [12] = assay: Metabolic stability in hepatocytes
Description: as §2, §3

rat hepatocytes [13] = assay: Metabolic stability in hepatocytes
Description: as §2, §3

O=C(O)[C@H]1O[C@@H](Oc2ccc3ccc(=O)oc3c2)[C@H](O)[C@@H](O)[C@@H]1O [7-EC-GluA, reference compound]
Area Ratio T0 h (monkey hepatocytes [1]; monkey hepatocytes, 7-EC incubation, 0 h): 6.08E+02 | Area Ratio T4 h (monkey hepatocytes [1]; monkey hepatocytes, 7-EC incubation, 4 h): 1.55E+07 | Area Ratio T0 h (dog hepatocytes [2]; dog hepatocytes, 7-EC incubation, 0 h): 0.00E+00 | Area Ratio T4 h (dog hepatocytes [2]; dog hepatocytes, 7-EC incubation, 4 h): 1.27E+07 | Area Ratio T0 h (rat hepatocytes [3]; rat hepatocytes, 7-EC incubation, 0 h): 1.45E+02 | Area Ratio T4 h (rat hepatocytes [3]; rat hepatocytes, 7-EC incubation, 4 h): 8.08E+05 | Area Ratio T0 h (mouse hepatocytes [4]; mouse hepatocytes, 7-EC incubation, 0 h): 0.00E+00 | Area Ratio T4 h (mouse hepatocytes [4]; mouse hepatocytes, 7-EC incubation, 4 h): 7.44E+06 | Area Ratio T0 h (human hepatocytes [5]; 7-EC incubation, 0 h): 1.07E+03 | Area Ratio T4 h (human hepatocytes [5]; 7-EC incubation, 4 h): 3.85E+06

NC(CCC(=O)NC(CSCC(F)C(=O)N1CC(n2c(=O)n(-c3ccc(C(F)(F)F)cc3)c3nccnc32)C1)C(=O)NCC(=O)O)C(=O)O (stereo not drawn) [M714]
UV (314 nm) Peak Areas Relative Abundance (monkey hepatocytes [1]): 3.01% | UV (314 nm) Peak Areas Relative Abundance (dog hepatocytes [2]): 22.65% | UV (314 nm) Peak Areas Relative Abundance (rat hepatocytes [3]): 18.4% | UV (314 nm) Peak Areas Relative Abundance (mouse hepatocytes [4]): 24.76% | Relative abundance of MS peak areas, Rat Bile 0-48 h [6]: 3.27% | UV (314 nm) Peak Areas Relative Abundance (human hepatocytes [5]): 3.01%

CC(=O)NC(CSCC(F)C(=O)N1CC(n2c(=O)n(-c3ccc(C(F)(F)F)cc3)c3nccnc32)C1)C(=O)O (stereo not drawn) [M570]
UV (314 nm) Peak Areas Relative Abundance (dog hepatocytes [2]): 2.44% | UV (314 nm) Peak Areas Relative Abundance (rat hepatocytes [3]): 2.6% | UV (314 nm) Peak Areas Relative Abundance (mouse hepatocytes [4]): 3.57% | Relative abundance of MS peak areas, Rat Bile 0-48 h [6]: 45.40% | Relative abundance of MS peak areas, Rat Feces 0-48 h [6]: 3.96% | Relative abundance of MS peak areas, Rat Urine 0-48 h [6]: 34.25% | Relative abundance of MS peak areas, Rat Plasma 0-24 h [6]: 0.12% | UV (314 nm) Peak Areas Relative Abundance (human hepatocytes [5]): 1.48% | Area ratio in rat urine, mean (%CV) [7]: 0.08 (40) | Change of area ratio in rat urine on coadministration with AOAA [7]: reduced

NC(CCC(=O)NC(CSCC(O)C(=O)N1CC(n2c(=O)n(-c3ccc(C(F)(F)F)cc3)c3nccnc32)C1)C(=O)NCC(=O)O)C(=O)O (stereo not drawn) [M712]
UV (314 nm) Peak Areas Relative Abundance (monkey hepatocytes [1]): + | UV (314 nm) Peak Areas Relative Abundance (dog hepatocytes [2]): + | UV (314 nm) Peak Areas Relative Abundance (rat hepatocytes [3]): + | UV (314 nm) Peak Areas Relative Abundance (mouse hepatocytes [4]): 1.43% | Relative abundance of MS peak areas, Rat Bile 0-48 h [6]: 0.10% | UV (314 nm) Peak Areas Relative Abundance (human hepatocytes [5]): +

CC(=O)NC(CSCC(O)C(=O)N1CC(n2c(=O)n(-c3ccc(C(F)(F)F)cc3)c3cncnc32)C1)C(=O)O (stereo not drawn) [M568]
Relative abundance of MS peak areas, Rat Bile 0-48 h [6]: 3.22% | Relative abundance of MS peak areas, Rat Feces 0-48 h [6]: 0.45% | Relative abundance of MS peak areas, Rat Urine 0-48 h [6]: 1.80% | Area ratio in rat urine, mean (%CV) [7]: 0.06 (20) | Change of area ratio in rat urine on coadministration with AOAA [7]: reduced

C[C@]12CC[C@H]3[C@@H](CCC4=CC(=O)CC[C@@]43C)[C@@H]1CC[C@@H]2O [Testosterone, testosterone]
half-life at 1 µM ([8]; ICR, mouse): 14.9 min | half-life at 1 µM ([8]; SD, rat): 13.9 min | half-life at 1 µM ([8]; beagle, dog): 14.1 min | half-life at 1 µM ([8]; human): 13.3 min | half-life at 1 µM ([8]; monkey): 11.5 min | CLint, in virto (dog hepatocytes [9]; dog hepatocytes, 1 µM): 49.1 µL·min^-1·Million cells^-1 | CLH (dog hepatocytes [9]; dog hepatocytes, Fub set as 1): 28.3 mL/min/kg | CLint, in vivo (dog hepatocytes [9]; dog hepatocytes, scaled to whole liver): 337.8 mL/min/kg | CLint, in virto (human hepatocytes [10]; human hepatocytes, 1 µM): 52.2 µL·min^-1·Million cells^-1 | CLH (human hepatocytes [10]; human hepatocytes, Fub set as 1): 18.7 mL/min/kg | CLint, in vivo (human hepatocytes [10]; human hepatocytes, scaled to whole liver): 188.7 mL/min/kg | CLH (monkey hepatocytes [11]; monkey hepatocytes, Fub set as 1): 36.6 mL/min/kg | CLint, in vivo (monkey hepatocytes [11]; monkey hepatocytes, scaled to whole liver): 217.3 mL/min/kg | CLint, in virto (mouse hepatocytes [12]; mouse hepatocytes, 1 µM): 46.6 µL·min^-1·Million cells^-1 | CLH (mouse hepatocytes [12]; mouse hepatocytes, Fub set as 1): 77.4 mL/min/kg | CLint, in vivo (mouse hepatocytes [12]; mouse hepatocytes, scaled to whole liver): 554.1 mL/min/kg | CLH (rat hepatocytes [13]; rat hepatocytes, Fub set as 1): 44.6 mL/min/kg | CLint, in vivo (rat hepatocytes [13]; rat hepatocytes, scaled to whole liver): 233.5 mL/min/kg

NC(CSCC(O)C(=O)N1CC(n2c(=O)n(-c3ccc(C(F)(F)F)cc3)c3cncnc32)C1)C(=O)O (stereo not drawn) [M526]
Relative abundance of MS peak areas, Rat Bile 0-48 h [6]: 1.52%

CC(=O)NC(CSCCC(=O)N1CC(n2c(=O)n(-c3ccc(C(F)(F)F)cc3)c3cncnc32)C1)C(=O)O (stereo not drawn) [M552]
Relative abundance of MS peak areas, Rat Bile 0-48 h [6]: 0.56% | Relative abundance of MS peak areas, Rat Feces 0-48 h [6]: 1.65% | Relative abundance of MS peak areas, Rat Urine 0-48 h [6]: 6.73% | Relative abundance of MS peak areas, Rat Plasma 0-24 h [6]: 0.015%

O=c1ccc2ccc(O)cc2o1 [7-hydroxycoumarin]
half-life at 1 µM ([8]; ICR, mouse): 49.3 min | half-life at 1 µM ([8]; SD, rat): 22.5 min | half-life at 1 µM ([8]; beagle, dog): 29.8 min | half-life at 1 µM ([8]; human): 20.4 min | half-life at 1 µM ([8]; monkey): 17.8 min | CLH (dog hepatocytes [9]; beagle, dog, 1 µM): 25.9 mL/min/kg | Eh (dog hepatocytes [9]; beagle, dog, 1 µM): 0.838 | CLint, in virto (dog hepatocytes [9]; dog, hepatocytes): 23.3 µL·min^-1·Million cells^-1 | CLint, in vivo (dog hepatocytes [9]; hepatocytes): 160.0 mL/min/kg | CLint, in vivo (human hepatocytes [10]; hepatocytes): 122.6 mL/min/kg | CLH (human hepatocytes [10]; human, 1 µM): 17.7 mL/min/kg | Eh (human hepatocytes [10]; human, 1 µM): 0.856 | CLint, in virto (human hepatocytes [10]; human, hepatocytes): 33.9 µL·min^-1·Million cells^-1 | CLH (monkey hepatocytes [11]; cynomolgus monkey, 1 µM): 33.5 mL/min/kg | Eh (monkey hepatocytes [11]; cynomolgus monkey, 1 µM): 0.762 | CLint, in vivo (monkey hepatocytes [11]; hepatocytes): 140.6 mL/min/kg | CLint, in virto (monkey hepatocytes [11]; monkey, hepatocytes): 39.0 µL·min^-1·Million cells^-1 | CLH (mouse hepatocytes [12]; ICR, mouse, 1 µM): 58.5 mL/min/kg | Eh (mouse hepatocytes [12]; ICR, mouse, 1 µM): 0.650 | CLint, in vivo (mouse hepatocytes [12]; hepatocytes): 167.1 mL/min/kg | CLint, in virto (mouse hepatocytes [12]; mouse, hepatocytes): 14.1 µL·min^-1·Million cells^-1 | CLH (rat hepatocytes [13]; SD, rat, 1 µM): 39.9 mL/min/kg | Eh (rat hepatocytes [13]; SD, rat, 1 µM): 0.723 | CLint, in vivo (rat hepatocytes [13]; hepatocytes): 144.0 mL/min/kg | CLint, in virto (rat hepatocytes [13]; rat, hepatocytes): 30.8 µL·min^-1·Million cells^-1

CC(=O)N1CC(n2c(=O)n(-c3ccc(C(F)(F)F)cc3)c3nccnc32)C1 [M377]
UV (314 nm) Peak Areas Relative Abundance (monkey hepatocytes [1]): 2.50% | UV (314 nm) Peak Areas Relative Abundance (dog hepatocytes [2]): 2.44% | UV (314 nm) Peak Areas Relative Abundance (rat hepatocytes [3]): 2.6% | UV (314 nm) Peak Areas Relative Abundance (mouse hepatocytes [4]): 3.57% | UV (314 nm) Peak Areas Relative Abundance (human hepatocytes [5]): 1.48%
